What was measured:
[1] = biological target: T1, p38 MAPKα isoform (MAPK14) (Homo sapiens, UniProt Q16539); test: p38 MAPKα enzyme inhibition (Z-LYTE FRET); assay type: biochemical; settings: Table 2B, unit inferred; read-out: p38 MAPKα (Enzyme Profile)
T1 construct: purchased Life Technologies
In short: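 Recombinant human MAPK14 (40 ng/mL stock) was preincubated 2 h at RT with compound (stock dilutions 0.0012-40 μg/mL). The Z-LYTE FRET read-out used a MAPKAP-K2-derived peptide, and protease development for 1 h cleaved only non-phosphorylated peptide. Phosphorylation was calculated from the coumarin/fluorescein emission ratio.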

p38MAPKγ (MAPK12) = biological target: T2, p38MAPKγ (MAPK12) (Homo sapiens, UniProt P53778); test: p38 MAPKγ enzyme inhibition (Z-LYTE FRET); assay type: biochemical; settings: Table 2B, unit inferred; read-out: p38 MAPKγ (Enzyme Profile)
T2 construct: purchased Life Technologies
T2 sequence (P53778 1-367): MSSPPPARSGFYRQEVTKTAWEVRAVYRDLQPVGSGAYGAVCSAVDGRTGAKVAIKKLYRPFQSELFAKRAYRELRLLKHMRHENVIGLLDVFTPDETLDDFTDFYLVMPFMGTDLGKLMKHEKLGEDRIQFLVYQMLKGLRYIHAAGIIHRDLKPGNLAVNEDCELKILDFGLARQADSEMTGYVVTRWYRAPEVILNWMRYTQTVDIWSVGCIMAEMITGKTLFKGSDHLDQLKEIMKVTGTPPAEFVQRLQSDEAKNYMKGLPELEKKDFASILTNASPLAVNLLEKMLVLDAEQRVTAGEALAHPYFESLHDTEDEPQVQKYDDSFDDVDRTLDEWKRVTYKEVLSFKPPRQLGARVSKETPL
In short: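 Z-LYTE read-out: after 1 h protease development, only non-phosphorylated peptide is cleaved, and the donor/acceptor (coumarin/fluorescein) ratio reports phosphorylation. Beforehand, enzyme and compound (stock concentrations 0.0012–40 μg/mL) were preincubated 2 h at RT, then the kinase reaction ran 1 h at RT with peptide and ATP (8 μM and 400 μM stocks).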

T1 sequence (Q16539 whole entry, canonical isoform): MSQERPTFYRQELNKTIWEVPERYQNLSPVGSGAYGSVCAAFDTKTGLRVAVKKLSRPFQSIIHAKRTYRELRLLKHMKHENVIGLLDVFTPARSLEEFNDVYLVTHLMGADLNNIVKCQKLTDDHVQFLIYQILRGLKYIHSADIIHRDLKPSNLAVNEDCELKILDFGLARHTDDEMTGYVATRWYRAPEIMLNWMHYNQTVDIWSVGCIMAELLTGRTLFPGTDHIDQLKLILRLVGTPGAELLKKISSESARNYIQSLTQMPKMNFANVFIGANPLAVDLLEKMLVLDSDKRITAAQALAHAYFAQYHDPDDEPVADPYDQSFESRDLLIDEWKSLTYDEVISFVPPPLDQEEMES

Compound	IC50 [1] [µM]	IC50 (p38MAPKγ (MAPK12)) [µM]
CCc1ncc(Nc2cc(COc3ccc(NC(=O)Nc4cc(C(C)(C)C)nn4-c4ccc(C)cc4)c4ccccc34)ccn2)nc1C [Example 129, 1-(3-(tert-butyl)-1-(p-tolyl)-1H-pyrazol-5-yl)-3-(4-((2-((5-ethyl-6-methylpyrazin-2-yl)amino)pyridin-4-yl)methoxy)naphthalen-1-yl) urea]	0.04	> 15.6
Cc1cc(C)cc(-n2nc(C(C)(C)C)cc2NC(=O)Nc2ccc(OCc3ccnc(Nc4cnccn4)c3)c3ccccc23)c1 [Example 180, 1-(3-(tert-butyl)-1-(3,5-dimethylphenyl)-1H-pyrazol-5-yl)-3-(4-((2-(pyrazin-2-ylamino)pyridin-4-yl)methoxy)naphthalen-1-yl) urea]	0.019	0.112
COc1cncc(Nc2cc(COc3ccc(NC(=O)Nc4cc(C(C)(C)C)nn4-c4ccc(C)s4)c4ccccc34)ccn2)n1 [Example 109, 1-(3-(tert-butyl)-1-(5-methylthiophen-2-yl)-1H-pyrazol-5-yl)-3-(4-((2-((6-methoxypyrazin-2-yl)amino)pyridin-4-yl)methoxy)naphthalen-1-yl) urea]	0.115	1.33
CCCc1cncc(Nc2cc(COc3ccc(NC(=O)Nc4cc(C(C)(C)C)nn4-c4cccc(C)c4)c4ccccc34)ccn2)n1 [Example 201, 1-(3-(tert-butyl)-1-(m-tolyl)-1H-pyrazol-5-yl)-3-(4-((2-((6-propylpyrazin-2-yl)amino)pyridin-4-yl)methoxy)naphthalen-1-yl)urea]	0.112	7.9
Cc1ccc(-n2nc(C(C)(C)C)cc2NC(=O)Nc2ccc(OCc3ccnc(Nc4cncc(N)n4)c3)c3ccccc23)cc1 [Example 106, 1-(4-((2-((6-aminopyrazin-2-yl)amino)pyridin-4-yl)methoxy)naphthalen-1-yl)-3-(3-(tert-butyl)-1-(p-tolyl)-1H-pyrazol-5-yl)urea]	0.0034	0.401

Further lines, results first:

IC50 [1] [µM]	IC50 (p38MAPKγ (MAPK12)) [µM]	Compound
0.018	0.105	Cc1ccc(-n2nc(C(C)(C)C)cc2NC(=O)Nc2ccc(OCc3ccnc(Nc4cnccn4)c3)c3ccccc23)cc1F [Example 59]
0.0052	0.081	COc1ccc(-n2nc(C(C)(C)C)cc2NC(=O)Nc2ccc(OCc3ccnc(Nc4cnc(CO)cn4)c3)c3ccccc23)cn1 [Example 177, 1-(3-(tert-butyl)-1-(6-methoxypyridin-3-yl)-1H-pyrazol-5-yl)-3-(4-((2-((5-(hydroxymethyl)pyrazin-2-yl)amino)pyridin-4-yl)methoxy)naphthalen-1-yl) urea]
0.01	0.111	Cc1ccc(-n2nc(C(C)(C)C)cc2NC(=O)Nc2ccc(OCc3ccnc(Nc4cnccn4)c3)c3ccccc23)cn1 [Example 198, 1-(3-(tert-butyl)-1-(6-methylpyridin-3-yl)-1H-pyrazol-5-yl)-3-(4-((2-(pyrazin-2-ylamino)pyridin-4-yl)methoxy)naphthalen-1-yl)urea]
0.034	0.51	Cc1cccc(-n2nc(C(C)(C)C)cc2NC(=O)Nc2ccc(OCc3ccnc(Nc4cncc(C5CC5)n4)c3)c3ccccc23)c1 [Example 160, 1-(3-(tert-butyl)-1-(m-tolyl)-1H-pyrazol-5-yl)-3-(4-((2-((6-cyclopropylpyrazin-2-yl)amino)pyridin-4-yl)methoxy)naphthalen-1-yl) urea]
0.016	0.33	CNC(=O)c1cnc(Nc2cc(COc3ccc(NC(=O)Nc4cc(C(C)(C)C)nn4-c4cccc(C)c4)c4ccccc34)ccn2)cn1 [Example 204, 5-((4-(((4-(3-(3-(tert-butyl)-1-(m-tolyl)-1H-pyrazol-5-yl)ureido)naphthalen-1-yl)oxy)methyl)pyridin-2-yl)amino)-N-methylpyrazine-2-carboxamide]
< 0.00159	4.56	COc1cnc(Nc2cc(COc3ccc(NC(=O)Nc4cc(C(C)(C)C)nn4-c4ccc(C)cc4)c4ccccc34)ccn2)cn1 [Example 105, 1-(3-(tert-butyl)-1-(p-tolyl)-1H-pyrazol-5-yl)-3-(4-((2-((5-methoxypyrazin-2-yl)amino)pyridin-4-yl)methoxy)naphthalen-1-yl) urea]

From US11142515B2, “Pyrazolyl-ureas as kinase inhibitors” (RESPIVERT LIMITED, priority 2014, dated 2021)
